According to ChEMBL document CHEMBL1201862, “PubChem BioAssay data set” (2004):
One block for each compound: values may come before it. Calls of active or inactive are those of the source.

What was measured:
Hexokinase = molecular target: T1, Hexokinase (Trypanosoma brucei, UniProt Q38C41); test: Confirmation assay for inhibitors of Trypanosoma brucei hexokinase 1-Analogue-first series. [Related pubchem assays (depositor defined):AID1430, AID1632, AID2516, AID2560, AID2579, AID2600, AID449725, AID492951]; assay type: functional
T1 sequence (Q38C41 whole entry): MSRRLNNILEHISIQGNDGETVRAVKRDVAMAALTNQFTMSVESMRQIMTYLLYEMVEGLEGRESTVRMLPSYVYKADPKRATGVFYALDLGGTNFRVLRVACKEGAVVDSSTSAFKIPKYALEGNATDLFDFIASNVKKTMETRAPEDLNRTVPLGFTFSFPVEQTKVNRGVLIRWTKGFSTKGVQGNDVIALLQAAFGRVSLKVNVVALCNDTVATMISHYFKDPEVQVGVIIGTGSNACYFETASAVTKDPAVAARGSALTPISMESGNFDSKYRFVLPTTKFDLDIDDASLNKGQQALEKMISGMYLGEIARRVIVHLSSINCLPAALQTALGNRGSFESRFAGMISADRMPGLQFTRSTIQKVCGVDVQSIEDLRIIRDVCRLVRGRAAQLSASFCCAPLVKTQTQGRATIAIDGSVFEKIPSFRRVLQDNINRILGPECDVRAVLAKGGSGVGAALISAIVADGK

[1] = molecular target: T2, Short transient receptor potential channel 4 (Mus musculus, UniProt Q9QUQ5); test: calcium entry via TRPC4 opening agents – cell-based, HEK293 TRPC4/mu-opioid, Fluo-4 calcium, dose response (AID 434937); assay type: functional
T2 sequence (Q9QUQ5 whole entry): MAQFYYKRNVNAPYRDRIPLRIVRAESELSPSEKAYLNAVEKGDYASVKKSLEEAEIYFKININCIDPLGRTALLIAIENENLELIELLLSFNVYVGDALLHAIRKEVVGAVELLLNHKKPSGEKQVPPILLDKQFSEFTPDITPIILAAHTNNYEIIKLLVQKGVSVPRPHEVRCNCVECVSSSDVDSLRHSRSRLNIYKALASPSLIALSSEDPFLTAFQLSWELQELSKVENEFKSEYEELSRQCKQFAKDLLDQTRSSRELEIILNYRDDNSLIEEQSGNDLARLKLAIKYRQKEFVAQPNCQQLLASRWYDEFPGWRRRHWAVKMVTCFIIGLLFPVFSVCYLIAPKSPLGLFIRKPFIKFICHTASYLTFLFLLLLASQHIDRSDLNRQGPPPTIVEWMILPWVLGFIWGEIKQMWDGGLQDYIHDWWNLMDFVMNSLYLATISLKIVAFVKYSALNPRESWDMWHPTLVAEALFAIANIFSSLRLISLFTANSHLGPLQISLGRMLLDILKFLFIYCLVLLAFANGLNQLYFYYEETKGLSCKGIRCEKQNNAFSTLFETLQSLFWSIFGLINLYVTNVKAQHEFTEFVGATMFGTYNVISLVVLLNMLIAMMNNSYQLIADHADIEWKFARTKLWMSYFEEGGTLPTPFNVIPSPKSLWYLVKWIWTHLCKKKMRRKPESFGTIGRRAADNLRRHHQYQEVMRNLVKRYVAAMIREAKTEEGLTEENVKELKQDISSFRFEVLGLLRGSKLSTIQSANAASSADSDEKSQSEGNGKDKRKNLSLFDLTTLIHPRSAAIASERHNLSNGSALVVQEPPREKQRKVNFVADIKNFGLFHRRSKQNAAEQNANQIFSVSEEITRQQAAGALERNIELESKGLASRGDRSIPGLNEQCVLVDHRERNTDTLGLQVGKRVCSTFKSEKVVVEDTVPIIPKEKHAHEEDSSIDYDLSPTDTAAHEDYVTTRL

[2] = molecular target: T2, Short transient receptor potential channel 4; test: potentiation of DAMGO-evoked TRPC4 calcium signal – cell-based, HEK293 TRPC4/mu-opioid, Fluo-4 calcium, EC20 DAMGO, dose response (AID 434941); assay type: functional
[3] = molecular target: DNA damage-inducible transcript 3 protein (Mus musculus, UniProt P35639); assay type: functional, Cricetulus griseus
Sequence of DNA damage-inducible transcript 3 protein (P35639 whole entry): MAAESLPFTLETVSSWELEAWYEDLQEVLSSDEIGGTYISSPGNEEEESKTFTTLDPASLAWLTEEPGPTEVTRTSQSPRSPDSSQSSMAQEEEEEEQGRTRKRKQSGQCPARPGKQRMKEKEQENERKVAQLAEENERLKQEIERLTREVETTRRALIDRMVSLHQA

[4] = molecular target: T3, Voltage-gated N-type calcium channel alpha-1B subunit/Amyloid beta A4 precursor protein-binding family A member 1 (Homo sapiens, UniProt Q00975+Q02410); assay type: protein assay
T3 sequence (Q00975 whole entry): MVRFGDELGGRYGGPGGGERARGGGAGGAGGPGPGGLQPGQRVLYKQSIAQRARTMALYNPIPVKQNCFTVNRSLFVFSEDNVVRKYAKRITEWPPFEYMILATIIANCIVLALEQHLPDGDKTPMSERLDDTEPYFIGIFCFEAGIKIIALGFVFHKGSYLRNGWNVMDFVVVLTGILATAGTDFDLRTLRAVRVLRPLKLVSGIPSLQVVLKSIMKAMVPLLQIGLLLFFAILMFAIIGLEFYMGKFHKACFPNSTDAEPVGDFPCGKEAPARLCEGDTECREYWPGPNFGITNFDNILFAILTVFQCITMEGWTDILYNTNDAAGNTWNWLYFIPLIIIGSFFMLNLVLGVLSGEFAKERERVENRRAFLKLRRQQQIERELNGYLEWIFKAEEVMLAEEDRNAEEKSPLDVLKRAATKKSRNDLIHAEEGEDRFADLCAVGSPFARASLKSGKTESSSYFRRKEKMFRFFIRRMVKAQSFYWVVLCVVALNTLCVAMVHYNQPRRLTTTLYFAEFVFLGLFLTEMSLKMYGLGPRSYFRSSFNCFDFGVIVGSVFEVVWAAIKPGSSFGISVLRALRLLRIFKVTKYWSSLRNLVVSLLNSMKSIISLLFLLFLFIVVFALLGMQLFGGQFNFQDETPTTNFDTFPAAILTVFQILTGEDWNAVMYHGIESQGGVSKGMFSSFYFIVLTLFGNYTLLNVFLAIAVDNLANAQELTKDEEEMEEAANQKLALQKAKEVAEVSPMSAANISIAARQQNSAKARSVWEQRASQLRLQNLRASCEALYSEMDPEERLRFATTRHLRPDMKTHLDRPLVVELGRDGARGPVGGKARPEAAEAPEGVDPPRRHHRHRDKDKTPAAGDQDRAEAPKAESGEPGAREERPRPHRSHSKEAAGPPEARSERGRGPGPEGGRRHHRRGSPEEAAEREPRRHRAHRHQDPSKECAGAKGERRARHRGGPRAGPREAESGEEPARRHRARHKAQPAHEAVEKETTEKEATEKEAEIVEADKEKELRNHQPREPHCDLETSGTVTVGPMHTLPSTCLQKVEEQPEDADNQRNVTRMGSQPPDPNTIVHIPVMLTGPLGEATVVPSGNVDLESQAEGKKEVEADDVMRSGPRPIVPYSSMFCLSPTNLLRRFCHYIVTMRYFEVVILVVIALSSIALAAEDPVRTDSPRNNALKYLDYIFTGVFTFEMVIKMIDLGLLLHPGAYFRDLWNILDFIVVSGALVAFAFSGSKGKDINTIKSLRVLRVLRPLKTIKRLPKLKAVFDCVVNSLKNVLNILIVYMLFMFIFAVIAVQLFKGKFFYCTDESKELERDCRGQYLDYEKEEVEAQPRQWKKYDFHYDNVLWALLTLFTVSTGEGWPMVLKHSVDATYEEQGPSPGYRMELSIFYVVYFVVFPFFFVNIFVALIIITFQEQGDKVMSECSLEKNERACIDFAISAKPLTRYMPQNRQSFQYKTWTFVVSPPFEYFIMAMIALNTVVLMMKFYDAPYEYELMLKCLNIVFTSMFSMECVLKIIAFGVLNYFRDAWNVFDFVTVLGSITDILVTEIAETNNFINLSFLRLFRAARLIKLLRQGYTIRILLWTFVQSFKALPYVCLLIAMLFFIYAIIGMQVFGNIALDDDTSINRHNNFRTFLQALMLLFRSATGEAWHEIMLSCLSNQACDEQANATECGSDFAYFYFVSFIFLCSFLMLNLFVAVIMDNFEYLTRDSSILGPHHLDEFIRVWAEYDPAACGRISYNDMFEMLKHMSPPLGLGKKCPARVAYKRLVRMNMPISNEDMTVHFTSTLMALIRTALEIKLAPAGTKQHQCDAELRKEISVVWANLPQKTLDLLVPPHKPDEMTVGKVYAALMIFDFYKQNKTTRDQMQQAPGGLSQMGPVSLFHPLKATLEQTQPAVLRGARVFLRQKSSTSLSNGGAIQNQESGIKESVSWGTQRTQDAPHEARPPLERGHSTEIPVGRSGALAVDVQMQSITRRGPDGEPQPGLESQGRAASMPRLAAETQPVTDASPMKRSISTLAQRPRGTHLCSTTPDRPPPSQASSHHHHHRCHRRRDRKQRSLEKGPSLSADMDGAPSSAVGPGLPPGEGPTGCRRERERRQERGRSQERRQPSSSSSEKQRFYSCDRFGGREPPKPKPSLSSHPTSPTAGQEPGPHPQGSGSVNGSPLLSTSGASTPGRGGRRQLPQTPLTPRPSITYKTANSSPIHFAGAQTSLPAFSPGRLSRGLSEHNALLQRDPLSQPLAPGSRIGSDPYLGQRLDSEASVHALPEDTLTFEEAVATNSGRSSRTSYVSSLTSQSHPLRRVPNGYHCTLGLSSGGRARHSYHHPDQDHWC
T3 sequence (Q02410 whole entry): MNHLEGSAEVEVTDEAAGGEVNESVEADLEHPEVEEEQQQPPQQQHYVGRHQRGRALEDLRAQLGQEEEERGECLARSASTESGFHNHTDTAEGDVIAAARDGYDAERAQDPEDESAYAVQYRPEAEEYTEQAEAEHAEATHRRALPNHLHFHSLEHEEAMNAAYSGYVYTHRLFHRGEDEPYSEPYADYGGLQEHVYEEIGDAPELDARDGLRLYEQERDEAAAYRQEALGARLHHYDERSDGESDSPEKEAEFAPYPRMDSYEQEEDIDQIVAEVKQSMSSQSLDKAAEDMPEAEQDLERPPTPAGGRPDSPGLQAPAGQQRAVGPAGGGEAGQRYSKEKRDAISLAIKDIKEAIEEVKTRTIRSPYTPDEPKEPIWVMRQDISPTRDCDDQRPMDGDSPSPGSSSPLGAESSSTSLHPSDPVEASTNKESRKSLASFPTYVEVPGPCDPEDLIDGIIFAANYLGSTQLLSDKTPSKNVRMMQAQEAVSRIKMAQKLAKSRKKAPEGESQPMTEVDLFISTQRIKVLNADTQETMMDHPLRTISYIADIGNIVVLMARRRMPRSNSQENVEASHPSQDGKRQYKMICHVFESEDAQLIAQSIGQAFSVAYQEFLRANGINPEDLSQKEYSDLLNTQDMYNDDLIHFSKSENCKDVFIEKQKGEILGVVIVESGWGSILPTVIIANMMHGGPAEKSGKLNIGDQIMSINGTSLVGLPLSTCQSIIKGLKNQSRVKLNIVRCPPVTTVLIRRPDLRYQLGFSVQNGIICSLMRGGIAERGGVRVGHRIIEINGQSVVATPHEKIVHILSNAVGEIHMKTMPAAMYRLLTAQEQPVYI

[5] = molecular target: T4, Heat shock factor protein 1 (Mus musculus, UniProt P38532); test: decrease of HSF1-responsive luciferase luminescence – cell-based, NIH3T3, dose retest, confirmation (AID 2382); assay type: functional;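 also: NIH3T3 fibroblasts with HSF1-driven luciferase reporter stressed by proteasome inhibitor MG132; luminescence from HSF1-driven luciferase expression after 8 hours of MG132 stress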
T4 sequence (P38532 whole entry): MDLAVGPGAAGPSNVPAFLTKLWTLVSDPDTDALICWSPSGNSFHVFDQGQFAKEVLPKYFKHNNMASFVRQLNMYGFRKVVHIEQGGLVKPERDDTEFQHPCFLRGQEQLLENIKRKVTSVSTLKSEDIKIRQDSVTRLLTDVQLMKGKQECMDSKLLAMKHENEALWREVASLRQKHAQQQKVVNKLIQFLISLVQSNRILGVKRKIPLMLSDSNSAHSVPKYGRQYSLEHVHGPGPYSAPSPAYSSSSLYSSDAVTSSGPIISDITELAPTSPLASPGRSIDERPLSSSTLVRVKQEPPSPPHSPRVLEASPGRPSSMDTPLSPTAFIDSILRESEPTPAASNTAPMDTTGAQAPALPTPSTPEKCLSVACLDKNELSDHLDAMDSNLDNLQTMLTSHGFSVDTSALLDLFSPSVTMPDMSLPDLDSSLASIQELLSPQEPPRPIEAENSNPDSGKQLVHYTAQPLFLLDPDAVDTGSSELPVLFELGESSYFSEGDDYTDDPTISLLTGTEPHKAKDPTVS

Saccharomyces cerevisiae = test: S. cerevisiae Caspase-1/ASC signal blockers IC50, NALP1 inhibitor project selectivity test (AID 488863); assay type: functional, organism-based
[6] = molecular target: Luciferin 4-monooxygenase (Photinus pyralis, UniProt P08659); test: inhibition of purified Photinus pyralis luciferase – biochemical, luminescence, dose response (AID 1891)
Sequence of Luciferin 4-monooxygenase (P08659 whole entry): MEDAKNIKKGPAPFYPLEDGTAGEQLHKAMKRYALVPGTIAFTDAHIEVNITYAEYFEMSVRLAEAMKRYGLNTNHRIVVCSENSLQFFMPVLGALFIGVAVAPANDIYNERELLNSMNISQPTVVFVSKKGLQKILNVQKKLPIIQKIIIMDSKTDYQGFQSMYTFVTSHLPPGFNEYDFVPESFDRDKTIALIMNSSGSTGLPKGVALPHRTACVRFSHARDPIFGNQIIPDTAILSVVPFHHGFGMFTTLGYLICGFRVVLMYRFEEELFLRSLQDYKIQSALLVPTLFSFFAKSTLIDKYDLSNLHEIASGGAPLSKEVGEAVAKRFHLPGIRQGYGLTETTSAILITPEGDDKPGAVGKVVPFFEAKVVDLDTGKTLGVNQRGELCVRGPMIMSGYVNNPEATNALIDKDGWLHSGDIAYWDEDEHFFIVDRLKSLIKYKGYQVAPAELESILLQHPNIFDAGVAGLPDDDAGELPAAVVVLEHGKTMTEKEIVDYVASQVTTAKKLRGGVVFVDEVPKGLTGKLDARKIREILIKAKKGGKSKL

[7] = molecular target: Heat shock protein HSP 90-alpha (Homo sapiens, UniProt P07900); assay type: functional, organism-based
[8] = Luminescence Cell-Based Dose Confirmation HTS to Identify Inhibitors of Platelet Dense Granule Release. [Related pubchem assays: 1663 (Primary HTS), 1678 (Summary of Project)]; assay type: functional
[9] = molecular target: T5, NACHT, LRR and PYD domains-containing protein 1 (Homo sapiens, UniProt Q9C000); test: NALP1 inhibitors in yeast, dose response, luminescent (AID 488860); assay type: functional
T5 sequence (Q9C000 whole entry): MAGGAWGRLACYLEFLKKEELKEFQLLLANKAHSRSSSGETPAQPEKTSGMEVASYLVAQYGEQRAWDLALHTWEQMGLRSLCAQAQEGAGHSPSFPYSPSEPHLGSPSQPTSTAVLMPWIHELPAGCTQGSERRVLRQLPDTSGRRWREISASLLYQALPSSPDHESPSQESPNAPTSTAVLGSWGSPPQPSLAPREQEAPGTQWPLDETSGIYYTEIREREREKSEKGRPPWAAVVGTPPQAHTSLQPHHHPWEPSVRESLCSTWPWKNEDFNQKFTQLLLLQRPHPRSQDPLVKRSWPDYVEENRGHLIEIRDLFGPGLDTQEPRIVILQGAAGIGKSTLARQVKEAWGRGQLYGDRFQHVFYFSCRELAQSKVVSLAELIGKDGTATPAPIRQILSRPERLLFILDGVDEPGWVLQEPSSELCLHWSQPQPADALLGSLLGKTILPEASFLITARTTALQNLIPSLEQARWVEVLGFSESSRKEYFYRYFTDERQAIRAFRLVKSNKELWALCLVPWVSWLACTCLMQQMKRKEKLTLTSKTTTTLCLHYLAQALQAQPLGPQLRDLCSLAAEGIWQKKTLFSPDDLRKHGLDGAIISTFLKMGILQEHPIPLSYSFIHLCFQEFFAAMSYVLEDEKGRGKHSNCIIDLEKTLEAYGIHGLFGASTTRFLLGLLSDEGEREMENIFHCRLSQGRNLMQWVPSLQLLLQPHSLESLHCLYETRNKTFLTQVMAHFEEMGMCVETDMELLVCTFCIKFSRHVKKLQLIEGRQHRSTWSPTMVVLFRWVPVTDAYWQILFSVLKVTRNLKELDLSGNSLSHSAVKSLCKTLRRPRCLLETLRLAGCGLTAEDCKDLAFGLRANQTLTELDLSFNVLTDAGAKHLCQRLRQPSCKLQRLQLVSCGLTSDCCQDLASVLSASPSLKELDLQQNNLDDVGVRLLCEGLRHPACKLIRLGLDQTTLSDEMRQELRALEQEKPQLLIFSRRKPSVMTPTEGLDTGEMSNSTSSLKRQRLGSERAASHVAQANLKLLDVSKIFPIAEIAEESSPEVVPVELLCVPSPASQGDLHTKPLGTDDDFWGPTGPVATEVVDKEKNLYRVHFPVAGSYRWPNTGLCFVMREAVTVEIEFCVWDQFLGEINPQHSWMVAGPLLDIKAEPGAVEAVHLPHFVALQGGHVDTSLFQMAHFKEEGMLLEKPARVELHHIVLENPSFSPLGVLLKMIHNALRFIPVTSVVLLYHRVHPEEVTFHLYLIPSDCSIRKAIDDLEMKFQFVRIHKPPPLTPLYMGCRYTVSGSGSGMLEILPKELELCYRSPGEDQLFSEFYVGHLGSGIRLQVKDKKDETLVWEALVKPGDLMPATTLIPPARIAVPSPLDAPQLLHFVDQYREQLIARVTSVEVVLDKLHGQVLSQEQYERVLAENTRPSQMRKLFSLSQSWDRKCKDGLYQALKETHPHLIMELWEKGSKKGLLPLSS

[10] = molecular target: T3, Voltage-gated N-type calcium channel alpha-1B subunit/Amyloid beta A4 precursor protein-binding family A member 1; assay type: protein assay; remark: listed apart in the source
X-box-binding protein 1 = molecular target: T6, X-box-binding protein 1 (Homo sapiens, UniProt P17861); assay type: functional, Cricetulus griseus;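 also: confirmatory dose-response counter-screen serving a CHOP assay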
T6 sequence (P17861 whole entry): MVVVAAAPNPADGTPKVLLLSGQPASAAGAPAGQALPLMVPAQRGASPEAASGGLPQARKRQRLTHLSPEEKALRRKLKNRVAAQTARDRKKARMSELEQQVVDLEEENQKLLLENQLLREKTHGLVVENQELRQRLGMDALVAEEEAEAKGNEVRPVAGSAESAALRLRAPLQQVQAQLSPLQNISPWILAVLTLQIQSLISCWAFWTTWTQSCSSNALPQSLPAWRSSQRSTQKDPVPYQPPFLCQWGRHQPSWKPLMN

H9c2 = test: cells; assay type: functional, cell-based; conditions: Rattus norvegicus, H9c2, Myocardium;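 also: confirmatory concentration-response retest of ultra-high-throughput screening hits for modulation of myocardial damage; cell death induced by hydrogen peroxide oxidative stress; compound pretreatment for 60 min then peroxide exposure for 2 h; potency is for protecting the cells against peroxide damage rather than for killing them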
[11] = HEK-293T viability loss after treatment – luminescence, T-cell screen hits, cytotoxicity control for TCR NF-kB inhibitor project, dose response (AID 489026); assay type: functional, cell-based;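 also: cells exposed to compound about 14 hours before the viability readout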
[12] = molecular target: T7, Corticotropin-releasing factor receptor 2/Corticotropin-releasing factor-binding protein (Homo sapiens, UniProt P24387+Q13324); test: activators of CRF receptor 2 with binding protein – uHTS hits, confirmation (AID 602473); assay type: functional; conditions: read-out: EC50_Mean
T7 sequence (Q13324 whole entry): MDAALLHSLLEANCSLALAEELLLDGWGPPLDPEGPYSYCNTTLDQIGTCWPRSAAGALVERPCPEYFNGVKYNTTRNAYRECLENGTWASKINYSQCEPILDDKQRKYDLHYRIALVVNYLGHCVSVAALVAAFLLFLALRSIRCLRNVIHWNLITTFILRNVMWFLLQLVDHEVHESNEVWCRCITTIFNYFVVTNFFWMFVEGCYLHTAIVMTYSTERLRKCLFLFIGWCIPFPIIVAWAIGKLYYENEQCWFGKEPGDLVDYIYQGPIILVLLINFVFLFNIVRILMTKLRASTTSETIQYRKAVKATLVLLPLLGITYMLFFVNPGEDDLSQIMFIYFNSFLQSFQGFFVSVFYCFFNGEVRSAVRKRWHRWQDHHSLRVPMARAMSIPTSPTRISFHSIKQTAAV
T7 sequence (P24387 whole entry): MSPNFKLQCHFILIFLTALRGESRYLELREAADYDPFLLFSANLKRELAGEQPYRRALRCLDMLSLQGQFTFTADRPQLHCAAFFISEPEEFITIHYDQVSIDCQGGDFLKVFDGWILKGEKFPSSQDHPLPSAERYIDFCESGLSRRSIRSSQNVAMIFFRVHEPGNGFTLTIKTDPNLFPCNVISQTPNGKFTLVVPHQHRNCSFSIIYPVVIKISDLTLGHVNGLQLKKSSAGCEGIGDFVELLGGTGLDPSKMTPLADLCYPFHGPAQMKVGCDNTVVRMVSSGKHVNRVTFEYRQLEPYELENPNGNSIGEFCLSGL

SMILES: O=C(Cn1sc2ccccc2c1=O)Nc1cccc(I)c1
- IC50 (Hexokinase): > 25 µM (inactive)

- EC50 [1]: 5.96 µM (active)
- EC50 [2]: 0.38 µM (active)
SMILES: COc1ccc(/N=C(\C)C2=C(O)C(=O)N(CCO)C2c2ccc(Br)cc2)cc1 (centres undefined)

SMILES: O=c1c2cc(Br)ccc2[s+]([O-])n1-c1ccccc1 (centres undefined)
- IC50 (Hexokinase): > 25 µM (inactive)

SMILES: COC(=O)/C=C\C(=O)Nc1cccc([N+](=O)[O-])c1
- Absolute IC50 (CHOP) [3]: 10 µM
- IC50 [4]: 10.1 µM (active)
- EC50 [5]: > 195 µM (not active)
- IC50 (Saccharomyces cerevisiae): 7.1 µM (active)
- EC50 [6]: > 112 µM (not active)
- AC50 [7]: 3.67 µM (active)
- EC50 [8]: 9.34 µM (active)
- IC50 [9]: 10.9 µM (active)
- IC50 [10]: 2.1 µM (active)

SMILES: CCOC(=O)Cc1csc(NC(=O)NC2(C(F)(F)F)Oc3ccc(Cl)cc3O2)n1 (centres undefined)
- Absolute IC50 (CHOP) [3]: 10 µM
- Absolute IC50 (XBP1) (X-box-binding protein 1): 10 µM
- IC50 (H9c2): > 79 µM (inactive)

SMILES: COC(=O)c1ccccc1NC(=O)CSc1nc(-c2ccco2)cc(C(F)(F)F)n1
- IC50 [11]: > 80 µM (inactive)

- EC50 [12]: 2.38 µM (active)
- EC50 [2]: 0.13 µM (active)
SMILES: O=C(O)CCNc1nc(-c2ccccc2)c2cc(Br)ccc2n1
